Consider 24 molecules from patent US8802665B2, “Pyrrolidine derivatives” (Hoffman-La Roche Inc., priority 2012, dated 2014).

Where a name gives a salt, the structure may show the parent alone.

Chain of human Cat S (P25774 115-331): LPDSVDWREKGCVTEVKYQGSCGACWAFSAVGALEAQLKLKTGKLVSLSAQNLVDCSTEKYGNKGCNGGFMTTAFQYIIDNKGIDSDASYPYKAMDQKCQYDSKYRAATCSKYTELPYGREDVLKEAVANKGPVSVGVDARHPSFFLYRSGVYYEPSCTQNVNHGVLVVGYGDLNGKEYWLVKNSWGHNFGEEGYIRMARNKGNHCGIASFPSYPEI

The target of this assay is human Cat S (Homo sapiens (Human), UniProt P25774). The assay is described as follows: Cathepsin enzyme inhibition assay (fluorogenic peptide substrate cleavage). The format is biochemical. To be noted: human Cathepsin S 1 nM, substrate Z-Val-Val-Arg-AMC 20 μM, pH 6.5; read-out: Ic50 CatS: human. On the procedure:
Cathepsin Enzyme Inhibition Assay
Enzyme activity is measured by observing the increase in fluorescence intensity caused by cleavage of a peptide substrate containing a fluorophore whose emission is quenched in the intact peptide. • Assay buffer: 100 mM potassium phosphate pH 6.5, EDTA-Na 5 mM, Triton X-100 0.001%, DTT 5 mM. • Enzymes (all at 1 nM): human and mouse Cathepsin S, Cat K, Cat B, Cat L. • Substrate (20 μM): Z-Val-Val-Arg-AMC, except for Cat K which uses Z-Leu-Arg-AMC (both from Bachem). • Z=Benzyloxycarbonyl. • AMC=7-Amino-4-Methyl-Coumarin. • DTT=dithiothreitol. • Final volume: 100 μL. • Excitation 360 nm, Emission 465 nm.
Enzyme is added to the substance dilutions in 96-well microtitre plates and the reaction is started with substrate. Fluorescence emission is measured over 20 minutes, during which time a linear increase is observed in the absence of inhibitor. IC50 are calculated by standard methods.
Inhibition of human Cat S, mouse Cat S, human Cat K, human Cat B, human Cat L and mouse Cat L have been measured separately. The results obtained for human Cat S for representative compounds of the invention are expressed in the following table in μM.
What is called IC50 is the point on the concentration scale where inhibition reaches its midpoint. For `CC(=O)N1CCN(C2(C(=O)N3C[C@H](S(=O)(=O)c4ccccc4Cl)C[C@H]3C(=O)NC3(C#N)CC3)CC2)CC1` [Example 31, (2S,4R)-1-(1-(4-Acetylpiperazin-1-yl)cyclopropanecarbonyl)-4-(2-chlorophenylsulfonyl)-N-(1-cyanocyclopropyl)pyrrolidine-2-carboxamide], the IC50 is 2.2 nM. The figure for `N#CC1(NC(=O)[C@@H]2C[C@@H](S(=O)(=O)c3ccccc3Cl)CN2C(=O)C2(N3CCN(C=O)CC3)CC2)CC1` [Example 34, (2S,4R)-4-(2-Chlorophenylsulfonyl)-N-(1-cyanocyclopropyl)-1-(1-(4-formylpiperazin-1-yl)cyclopropanecarbonyl)pyrrolidine-2-carboxamide] is 1.4 nM.

For `N#CC1(NC(=O)[C@@H]2C[C@@H](S(=O)(=O)c3ccccc3Cl)CN2C(=O)C2(N3CCCC3)CC2)CC1` [Example 28, (2S,4R)-4-(2-Chlorophenylsulfonyl)-N-(1-cyanocyclopropyl)-1-(1-(pyrrolidin-1-yl)cyclopropanecarbonyl)pyrrolidine-2-carboxamide], the IC50 is 1.2 nM. The figure for `N#CC1(NC(=O)[C@@H]2C[C@@H](S(=O)(=O)c3ccccc3Cl)CN2C(=O)C2CCN2C2CCSCC2)CC1` (stereo partly drawn) [Example 10, (2S,4R)-4-(2-Chlorophenylsulfonyl)-N-(1-cyanocyclopropyl)-1-(1-(tetrahydro-2H-thiopyran-4-yl)azetidine-2-carbonyl)pyrrolidine-2-carboxamide] is 2.2 nM; for `COC(=O)N1CCN(C2(C(=O)N3C[C@H](S(=O)(=O)c4ccccc4Cl)C[C@H]3C(=O)NC3(C#N)CC3)CC2)CC1` [Example 33, Methyl 4-(1-((2S,4R)-4-(2-chlorophenylsulfonyl)-2-(1-cyanocyclopropylcarbamoyl)pyrrolidine-1-carbonyl)cyclopropyl)piperazine-1-carboxylate] it is 2.6 nM; for `N#CC1(NC(=O)[C@@H]2C[C@@H](S(=O)(=O)c3ccccc3Cl)CN2C(=O)C2CCN2C2CCN(CC(F)(F)F)CC2)CC1` (stereo partly drawn) [Example 7, (2S,4R)-4-(2-Chlorophenylsulfonyl)-N-(1-cyanocyclopropyl)-1-(1-(1-(2,2,2-trifluoroethyl)piperidin-4-yl)azetidine-2-carbonyl)pyrrolidine-2-carboxamide] it is 3.9 nM. On to `CC1(C)CCC(N2CCC2C(=O)N2C[C@H](S(=O)(=O)c3ccccc3Cl)C[C@H]2C(=O)NC2(C#N)CC2)CC1` (stereo partly drawn) [Example 3, (2S,4R)-4-(2-Chlorophenylsulfonyl)-N-(1-cyanocyclopropyl)-1-(1-(4,4-dimethylcyclohexyl)azetidine-2-carbonyl)pyrrolidine-2-carboxamide], for which the IC50 amounted to 3.8 nM. The figure for `CCOC(=O)N1CCC(N2CCC2C(=O)N2C[C@H](S(=O)(=O)c3cccc(C(F)(F)F)c3)C[C@H]2C(=O)NC2(C#N)CC2)CC1` (stereo partly drawn) [Example 24, Ethyl 4-(2-((2S,4R)-2-(1-cyanocyclopropylcarbamoyl)-4-(3-(trifluoromethyl)phenylsulfonyl)pyrrolidine-1-carbonyl)azetidin-1-yl)piperidine-1-carboxylate] is 1.6 nM; for `CC1(C)CCCN(C2(C(=O)N3C[C@H](S(=O)(=O)c4ccccc4Cl)C[C@H]3C(=O)NC3(C#N)CC3)CC2)C1` [Example 48, (2S,4R)-4-(2-Chlorophenylsulfonyl)-N-(1-cyanocyclopropyl)-1-(1-(3,3-dimethylpiperidin-1-yl)cyclopropanecarbonyl)pyrrolidine-2-carboxamide] it is 2.3 nM. Consider `Cc1nsc(N2CCC(N3CCC3C(=O)N3C[C@H](S(=O)(=O)c4ccccc4Cl)C[C@H]3C(=O)NC3(C#N)CC3)CC2)n1` (stereo partly drawn) [Example 4, (2S,4R)-4-(2-Chlorophenylsulfonyl)-N-(1-cyanocyclopropyl)-1-(1-(1-(3-methyl-1,2,4-thiadiazol-5-yl)piperidin-4-yl)azetidine-2-carbonyl)pyrrolidine-2-carboxamide formate], for which the IC50 was 0.9 nM. The figure for `CCOC(=O)N1CCC(N2CCC2C(=O)N2C[C@H](S(=O)(=O)c3ccccc3OC)C[C@H]2C(=O)NC2(C#N)CC2)CC1` (stereo partly drawn) [Example 21, Ethyl 4-(2-((2S,4R)-2-(1-cyanocyclopropylcarbamoyl)-4-(2-methoxyphenylsulfonyl)pyrrolidine-1-carbonyl)azetidin-1-yl)piperidine-1-carboxylate] is 9.2 nM. The figure for `CCOC(=O)N1CCC(N2CCC2C(=O)N2C[C@H](Sc3ccccc3OC)C[C@H]2C(=O)NC2(C#N)CC2)CC1` (stereo partly drawn) [Example 16, Ethyl 4-(2-((2S,4R)-2-(1-cyanocyclopropylcarbamoyl)-4-(2-methoxyphenylthio)pyrrolidine-1-carbonyl)azetidin-1-yl)piperidine-1-carboxylate] is 1740 nM; for `N#CC1(NC(=O)[C@@H]2C[C@@H](S(=O)(=O)c3cccc(Cl)c3)CN2C(=O)C2(N3CCCCC3)CC2)CC1` [Example 43, (2S,4R)-4-(3-Chlorophenylsulfonyl)-N-(1-cyanocyclopropyl)-1-(1-(piperidin-1-yl)cyclopropanecarbonyl)pyrrolidine-2-carboxamide] it is 0.3 nM. To `N#CC1(NC(=O)[C@@H]2C[C@@H](S(=O)(=O)c3ccccc3Cl)CN2C(=O)C2CCN2C2CCCCC2)CC1` (stereo partly drawn) [Example 1, (2S,4R)-4-(2-Chlorophenylsulfonyl)-N-(1-cyanocyclopropyl)-1-(1-cyclohexylazetidine-2-carbonyl)pyrrolidine-2-carboxamide] belongs 1.7 nM; to `N#CC1(NC(=O)[C@@H]2C[C@@H](S(=O)(=O)c3ccccc3Cl)CN2C(=O)C2(N3CCOCC3)CC2)CC1` [Example 39, (2S,4R)-4-(2-Chlorophenylsulfonyl)-N-(1-cyanocyclopropyl)-1-(1-morpholino-cyclopropanecarbonyl)pyrrolidine-2-carboxamide], 0.8 nM.

As for `N#CC1(NC(=O)[C@@H]2C[C@@H](S(=O)(=O)c3ccc(Cl)cc3)CN2C(=O)C2(N3CCCCC3)CC2)CC1` [Example 47, (2S,4R)-4-(4-Chlorophenylsulfonyl)-N-(1-cyanocyclopropyl)-1-(1-(piperidin-1-yl)cyclopropanecarbonyl)pyrrolidine-2-carboxamide], the IC50 was 0.8 nM. To `CC1(C)CC(N2CCC2C(=O)N2C[C@H](S(=O)(=O)c3ccccc3Cl)C[C@H]2C(=O)NC2(C#N)CC2)CCO1` (stereo partly drawn) [Example 8, (2S,4R)-4-(2-Chlorophenylsulfonyl)-N-(1-cyanocyclopropyl)-1-(1-(2,2-dimethyltetrahydro-2H-pyran-4-yl)azetidine-2-carbonyl)pyrrolidine-2-carboxamide] belongs 2.5 nM. The figure for `N#CC1(NC(=O)[C@@H]2C[C@@H](S(=O)(=O)c3ccccc3Cl)CN2C(=O)C2CCN2C2CCCC2)CC1` (stereo partly drawn) [Example 9, (2S,4R)-4-(2-Chlorophenylsulfonyl)-N-(1-cyanocyclopropyl)-1-(1-cyclopentylazetidine-2-carbonyl)pyrrolidine-2-carboxamide] is 2 nM; for `CCOC(=O)N1CCC(N2CCC2C(=O)N2C[C@H](S(=O)(=O)c3ccccc3OC(F)(F)F)C[C@H]2C(=O)NC2(C#N)CC2)CC1` (stereo partly drawn) [Example 23, Ethyl 4-(2-((2S,4R)-2-(1-cyanocyclopropylcarbamoyl)-4-(2-(trifluoromethoxy)phenylsulfonyl)pyrrolidine-1-carbonyl)azetidin-1-yl)piperidine-1-carboxylate] it is 4.1 nM; for `CCN1CCN(C2(C(=O)N3C[C@H](S(=O)(=O)c4ccccc4Cl)C[C@H]3C(=O)NC3(C#N)CC3)CC2)CC1` [Example 36, (2S,4R)-4-(2-Chlorophenylsulfonyl)-N-(1-cyanocyclopropyl)-1-(1-(4-ethylpiperazin-1-yl)cyclopropanecarbonyl)pyrrolidine-2-carboxamide] it is 6.2 nM. To `N#CC1(NC(=O)[C@@H]2C[C@@H](S(=O)(=O)c3ccccc3Cl)CN2C(=O)C2(N3CCCCC3)CC2)CC1` [Example 25, (2S,4R)-4-(2-Chlorophenylsulfonyl)-N-(1-cyanocyclopropyl)-1-(1-(piperidin-1-yl)cyclopropanecarbonyl)pyrrolidine-2-carboxamide] belongs 0.5 nM. Turning to `N#CC1(NC(=O)[C@@H]2C[C@@H](S(=O)(=O)c3ccccc3Cl)CN2C(=O)C2CCN2C2CCC(F)(F)CC2)CC1` (stereo partly drawn) [Example 2, (2S,4R)-4-(2-Chlorophenylsulfonyl)-N-(1-cyanocyclopropyl)-1-(1-(4,4-difluorocyclohexyl)azetidine-2-carbonyl)pyrrolidine-2-carboxamide], the IC50 turned out to be 1 nM. The figure for `N#CC1(NC(=O)[C@@H]2C[C@@H](S(=O)(=O)c3cccc(C(F)(F)F)c3)CN2C(=O)C2(N3CCCCC3)CC2)CC1` [Example 46, (2S,4R)-N-(1-Cyanocyclopropyl)-1-(1-(piperidin-1-yl)cyclopropanecarbonyl)-4-(3-(trifluoromethyl)phenylsulfonyl)pyrrolidine-2-carboxamide] is 0.4 nM; for `CCOC(=O)N1CCC(N2CCC2C(=O)N2C[C@H](S(=O)(=O)c3cccc(Cl)c3)C[C@H]2C(=O)NC2(C#N)CC2)CC1` (stereo partly drawn) [Example 19, Ethyl 4-(2-((2S,4R)-4-(3-chlorophenylsulfonyl)-2-(1-cyanocyclopropylcarbamoyl)pyrrolidine-1-carbonyl)azetidin-1-yl)piperidine-1-carboxylate] it is 1.8 nM.
